Columns and labels:
[1] = tested on: incision at tumor implantation site; assay: Wound healing in nude mice implanted with C6 rat glioma tumors; type: in vivo, CD1-nude mice
Experimental: Tumors from C6 rat glioma cells were prepared and implanted in nude mice. Certain mice received Halofuginone, either orally or through i.p. (intra-peritoneal) administration. […] The experimental method was as follows. C6 rat glioma cells were cultured in DMEM supplemented with 5% FCS, 50 units/ml penicillin, 50 micrograms/ml streptomycin and 125 […]. Aggregation of cells into small spheroids of about 150 microns was initiated by replating cells from confluent cultures onto agar-coated bacteriological plates. After 4-5 days in culture, the suspension was transferred to a 250 ml spinner flask (Bellco, USA), and the medium was changed every other da for 30-40 days. All culture operations were performed at 37° C. and 5% CO2. Other conditions were as previously reported (Abramovitch et al., Br. J. Cancer, 77:440-447, 1998; Abramovitch et al., Cancer Res., 55:1956-62, 1995). For the implantation of the cells, male CD1-nude mice, two months old and 30 g body weight, were anesthetized. A single tumor, about 1 mm in diameter, was implanted in each mouse stubcutaneously in the lower back at the site of a 4 mm incision, using a Teflon tubing, as reposed previously (Abramovitch et al., Br. J. Cancer, 77:440-447, 1998). The incision was formed with fine surgical scissors and closed with an adhesive bandage. The mice were then divided into six groups. One group received Halofuginone by oral administration as previously described. Four groups received different concentrations of Halofuginone through i.p. injections every other day (0.1, 0.5, 2 and 4 micrograms of Halofuginone per injection). One group received sham injections (no Halofuginone). MRI microimaging of the implanted tumor was performed on a horizontal 4.7 T Bruker-Biospec spectrometer using an actively RF decoupled surface coil, 2 cm in diameter, and a bird-cage transmission coil, as reported previously (Abramovitch et al., Br. J. Cancer, 77:440-447, 1998; and Abramovitch et al., Magn. Reson. Med., 39:813-824, 1998). Mice were anesthetized and placed supine with the tumor located at the center of the surface coil. Gradient echo images were acquired with a slice thickness of 0.5 mm, TE of 10 ms, TR of 230 ms and 256×256 pixels matrix resulting in in-plane resolution of 110 microns. Growth of the capillary bed was reflected by reduction of the mean intensity at a region of interest of 1 mm surrounding the tumor (Abramovitch et al., Br. J. Cancer, 77:440-447, 1998; and Abramovitch et al., Magn. Reson. Med., 39:813-824, 1998). At the end of the experimental period, the mice were sacrificed, and sections were obtained and prepared as previously described above. […] Such a result is surprising since wounds located less than 1 mm from a tumor implantation site have been previously shown not to heal rapidly.

collagen α1(I) gene = assay: Northern blot of collagen α1(I) gene in urethral fibroblasts; type: cell-based, rat; conditions: Northern blot analysis
Experimental: Next, total RNA was isolated using the guanidinium-thiocyanate-phenol technique (Chomczynski, P. and N. Sacchi, Anal. Biochem., 162:156, 1987). RNA was subjected to 1% agarose denaturing gel electrophoresis, followed by blotting onto a nylon filter (GeneScreen Plus, New England Nuclear, Boston, Mass., USA). The probe for the collagen α1(I) gene was labeled using the random primer procedure with a commercial kit (Boehringer, Germany). Hybridization was performed overnight at 40° C. in a solution containing 10% dextran sulfate, 1% SDS, 1 M NaCl, 40% formamide and […] denatured herring sperm DNA. Hybridization was followed by two 30-minute washes in 2×SSC (1×SSC contains 0.15 M NaCl and 0.015 M sodium citrate), 1% SDS, and two 20 minute washes in 1×SSC, 0.1% SDS. The filters were exposed to X-ray film (Agfa-Curix) at −70° C., using intensifying screens.

collagen = assay: Collagen content at the stricture site (Sirius red staining); type: in vivo, rats
Experimental: The experiments were performed as follows. First, urethral catherization was performed on tile rats with a 23 G Quik-Cath (Baxter, Ireland) sheath. A spinal needle was inserted into the sheath, and was used to apply a coagulation current at a level of 10 W to the outer end of the needle for 1 second at three locations, 8, 10 and 12 mm from the meatus, in order to produce urethral strictures. Halofuginone was given for 7 days starting at the day of stricture formation, either orally at concentrations of 1 ppm and 5 ppm in the diet, or by injection of 0.03% Halofuginone dissolved in 2% lignocaine directly into the urethra once a day. After 21 days, the rats were sacrificed and the sutures were reopened to determine the level of urethral stricture formation, at which time biopsies of the tissue were taken. The tissue was sectioned so that histological studies could be performed. Briefly, the tissue samples were collected into phosphate-buffered saline (PBS) and fixed overnight in 4% paraformaldehyde in PBS at 4° C. Serial 5 μm sections were prepared after the samples had been dehydrated in graded ethanol solutions, cleared in chloroform and embedded in Paraplast. Differential staining of collagenous and non-collagenous proteins was performed with 0.1% Sirius red and 0.1% fast green as a counter-stain in picric acid. […]

skin wound = assay: Wound strength (bursting point, Instron tensiometer); type: in vivo, rats; conditions: irradiated or not; one or six injections
Experimental: Wound strength was assessed by preparing rats substantially as described above, except that one group of rats (not irradiated) only received one injection of Halofuginone after wounding. The strength of wounds was measured as follows. First, a square of skin which was approximately 20 mm long and 16 mm wide, and which included the main part of the wound, was excised from sacrificed rats. Next, the skin was cut, perpendicular to the wound, to yield 7 strips of skin, each of which was 2 mm wide. The skin strips were secured between paper reinforcement frames and loaded on an Instron tensiometer for stretching at a constant rate of 25 mm/min. The bursting point was then recorded.

[2] = orally or 4 micrograms per i.p. injection
[3] = particularly at the highest dose (4 micrograms per i.p. injection)

Question: How did the “complete re-epitheliazation (mice per group)” value ([1]; 4 micrograms per i.p. injection every other day) turn out when `O=C(CC1NCCC[C@H]1O)Cn1cnc2cc(Br)c(Cl)cc2c1=O` (some centres unmarked) [Halofuginone] was run?
Answer: 4 out of 5

Question: And the “complete re-epitheliazation (mice per group)” value ([1]; administered orally)?
Answer: 4 out of 5

Question: And the “re-epitheliazation (mice per group)” value ([1]; all other groups (0.1, 0.5, 2 micrograms per i.p. injection; sham))?
Answer: 1 out of 5

Question: And the “scarring at the site of the wound” value [1, 2]?
Answer: no scarring

Question: And the “wound healing despite presence of tumor” value [1, 2]?
Answer: significantly improved wound healing

Question: What about the collagen content [1, 3] of the same compound?
Answer: decreased

Question: And the “expression of the collagen α1(I) gene” value [1, 3]?
Answer: decreased

Question: What about the “expression of the collagen α1(I) gene” value (collagen α1(I) gene) of the same compound?
Answer: specifically decreased the expression

Question: What about the “amount of collagen in the biopsies” value (collagen; given locally (FIG. 7D)) of the same compound?
Answer: decreased the amount of collagen

Question: What about the “amount of collagen in the biopsies” value (collagen; given orally (FIG. 7C)) of the same compound?
Answer: decreased the amount of collagen

Question: And the wound strength (skin wound)?
Answer: did not reduce wound strength

From patent US20060293351A1, “Promotion of wound healing” (priority 1999, published 2006)
